Data on twelve compounds can be found in ChEMBL document CHEMBL1201862, “PubChem BioAssay data set” (2004).

Each structure is given as a SMILES string.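 Results reflect a 48-hour exposure of cells in 96-well plates to compound at five concentrations. GI50 marks 50% less growth.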 The source made the active and inactive calls. Rule as the data show it: active = GI50 up to about 1.1 µM and inactive = higher.

Among the test systems are IGROV-1; SK-MEL-2; SK-OV-3; MDA-MB-435; K562; HCT-15; MDA-N; COLO 205; A498; SNB-19; HT-29; BT-549; OVCAR-3; RPMI-8226; SF-539; NCI-H522; SK-MEL-5; OVCAR-4; M19-MEL.
Assay in all cases: inhibition of tumour cell growth, NCI panel, 48 h

Turning to `NS(=O)(=O)c1ccc(NC2(C(=O)O)CCCC2)cc1`, the GI50 in the assay with IGROV-1 is > 100 µM (inactive); with SK-MEL-2, > 100 µM (inactive); with SK-OV-3, > 100 µM (inactive); in the assay with MDA-MB-435, > 100 µM (inactive); in the assay on K562 it was > 100 µM (inactive); in the assay with HCT-15, greater than 100 µM. The GI50 in the assay on MDA-N, with COLO 205, in the assay on A498, with SNB-19, in the assay with HT-29 and in the assay on BT-549 was > 100 µM (inactive) in each case. Moreover, the GI50 in the assay on OVCAR-3, in the assay on RPMI-8226, in the assay with SF-539, with NCI-H522, in the assay on SK-MEL-5 and in the assay on OVCAR-4 was > 100 µM (inactive) in each case.

Regarding `O=C1Nc2c(Cl)cccc2/C1=N/Nc1ccccc1[N+](=O)[O-]`, the GI50 was 1.9 µM (inactive) in the assay on IGROV-1; 70.6 µM (inactive) in the assay with SK-MEL-2; 18.8 µM (inactive) with SK-OV-3; 28.2 µM (inactive) in the assay on MDA-MB-435; 36.9 µM (inactive) with K562; 29.9 µM with HCT-15. The GI50 in the assay on MDA-N is 25.6 µM (inactive); in the assay with COLO 205, 81.3 µM (inactive); in the assay with A498, 28.2 µM (inactive); in the assay with SNB-19 it was 44.3 µM (inactive); in the assay on HT-29 it was 12.5 µM (inactive); in the assay with BT-549 it was 28 µM (inactive). Besides, the GI50 in the assay on OVCAR-3 is 44.4 µM (inactive); with RPMI-8226, 25 µM (inactive); with SF-539, 16.7 µM (inactive); in the assay on NCI-H522 it was 4.45 µM (inactive); in the assay on SK-MEL-5, 12.2 µM (inactive); with OVCAR-4, 8.81 µM (inactive).

For `CC[C@@]1(O)C[C@H](OC2CC(N(C)C)C(O)C(C)O2)c2c(O)c3c(c(O)c2[C@H]1OC1CC(N(C)C)C(O)C(C)O1)C(=O)c1cccc(O)c1C3=O` (stereo partly specified), the GI50 with IGROV-1 is 0.0706 µM (active); in the assay on SK-MEL-2, 0.0227 µM (active); in the assay with SK-OV-3, 0.0397 µM (active); with MDA-MB-435, 0.0341 µM (active); with K562, 0.0267 µM (active); with HCT-15, 0.0585 µM. For the same compound, the GI50 was 0.0363 µM (active) in the assay with MDA-N; 0.0321 µM (active) in the assay with COLO 205; 0.012 µM (active) in the assay with A498; 0.04 µM (active) with SNB-19; 0.0224 µM (active) in the assay with HT-29; 0.041 µM (active) with BT-549. In addition, the GI50 is 0.051 µM (active) in the assay on OVCAR-3; 0.0409 µM (active) in the assay on RPMI-8226; 0.0531 µM (active) in the assay with SF-539; 0.0144 µM (active) with NCI-H522; 0.0323 µM (active) in the assay with SK-MEL-5; 0.0409 µM (active) in the assay on OVCAR-4.

For the compound `COc1cc(/C=C2\C[C@H]3[C@@H]4CC=C5C[C@@H](O)CC[C@]5(C)[C@H]4CC[C@]3(C)[C@H]2O)cc(OC)c1OC`, the GI50 with IGROV-1 was 27.8 µM (inactive); with SK-MEL-2 it was 12.7 µM (inactive); in the assay on SK-OV-3 it was 25.5 µM (inactive); in the assay with MDA-MB-435, 20 µM (inactive); with K562, 5.97 µM (inactive); in the assay on HCT-15, 7.05 µM. The GI50 was 21.9 µM (inactive) in the assay with MDA-N; 7.31 µM (inactive) in the assay on COLO 205; 20.9 µM (inactive) in the assay on A498; 50.1 µM (inactive) in the assay on SNB-19; 11.1 µM (inactive) with HT-29; 15.4 µM (inactive) in the assay on BT-549. For the same compound, the GI50 in the assay on OVCAR-3 is 12.2 µM (inactive); in the assay on RPMI-8226, 4.92 µM (inactive); with SF-539, 14.3 µM (inactive); with NCI-H522, 19.1 µM (inactive); in the assay on SK-MEL-5, 6.28 µM (inactive); in the assay with OVCAR-4, 7.45 µM (inactive).

As for `CCO/N=[N+](\[O-])N(CC)CC`, the GI50 is > 100 µM (inactive) in the assay on IGROV-1; > 100 µM (inactive) in the assay with SK-MEL-2; > 100 µM (inactive) in the assay on SK-OV-3; > 100 µM (inactive) with K562; greater than 100 µM in the assay on HCT-15; > 100 µM (inactive) in the assay on A498. Besides, the GI50 with SNB-19, in the assay on HT-29, with OVCAR-3, in the assay on SF-539, in the assay on M19-MEL and in the assay on NCI-H522 was > 100 µM (inactive) throughout. The GI50 in the assay on SK-MEL-5 is > 100 µM (inactive).

With `CCN1CCC(O)(c2ccc([N+](=O)[O-])cc2)C(C(=O)c2ccc([N+](=O)[O-])cc2)C1` (stereo unspecified), the GI50 in the assay with IGROV-1 was 18.2 µM (inactive); in the assay on SK-MEL-2, 43.2 µM (inactive); in the assay with SK-OV-3, > 100 µM (inactive); in the assay with MDA-MB-435, 20.5 µM (inactive); with K562, 36.8 µM (inactive); in the assay on HCT-15 it was 21.3 µM. The GI50 was 20.8 µM (inactive) with MDA-N; 13.8 µM (inactive) in the assay with COLO 205; 22 µM (inactive) in the assay with A498; 95.1 µM (inactive) in the assay on SNB-19; 32.1 µM (inactive) with HT-29; 16.9 µM (inactive) with BT-549. Moreover, the GI50 was 14.8 µM (inactive) in the assay with OVCAR-3; 3.33 µM (inactive) with RPMI-8226; 14.3 µM (inactive) in the assay with SF-539; 3.33 µM (inactive) with NCI-H522; 18.1 µM (inactive) in the assay on SK-MEL-5; 25.9 µM (inactive) with OVCAR-4.

Turning to `C=CCCC(OCOCCOC)c1cc(C)c(O[Si](C)(C)C(C)(C)C)c(C)c1` (stereo unspecified), the GI50 in the assay on IGROV-1 is 19.9 µM (inactive); with SK-MEL-2 it was 15.8 µM (inactive); in the assay on SK-OV-3, 25.4 µM (inactive); in the assay on K562, 8.05 µM (inactive); with HCT-15, 13.2 µM; in the assay with COLO 205, 16.7 µM (inactive). For the same compound, the GI50 with A498 was 22.8 µM (inactive); in the assay on SNB-19 it was 6.32 µM (inactive); in the assay with OVCAR-3 it was 13.6 µM (inactive); in the assay with RPMI-8226 it was 4.81 µM (inactive); in the assay on SF-539, 18.4 µM (inactive); in the assay on M19-MEL, 17.9 µM (inactive). In addition, the GI50 in the assay with NCI-H522 is 11.8 µM (inactive); with SK-MEL-5, 10.1 µM (inactive).

As for `Cc1noc(/N=C2\C=C(O)C(=O)c3ccccc32)c1C`, the GI50 is 10 µM (inactive) in the assay on IGROV-1; 0.251 µM (active) in the assay on SK-MEL-2; 8.3 µM (inactive) in the assay on SK-OV-3; 0.126 µM (active) with MDA-MB-435; 0.206 µM (active) with K562; 11.6 µM in the assay with HCT-15. Further, the GI50 with MDA-N was 0.173 µM (active); in the assay with COLO 205, 31.5 µM (inactive); in the assay with A498, 29.2 µM (inactive); with SNB-19, 3.91 µM (inactive); in the assay on HT-29 it was 17.6 µM (inactive); with BT-549 it was 1.05 µM (active). Besides, the GI50 with OVCAR-3 was 4.31 µM (inactive); with RPMI-8226, 9.64 µM (inactive); in the assay on SF-539, 1.04 µM (active); in the assay on NCI-H522, 0.274 µM (active); with SK-MEL-5, 0.676 µM (active); in the assay with OVCAR-4, 19.5 µM (inactive).

Turning to `Cc1nccn1S(=O)(=O)c1ccc(Cl)cc1`, the GI50 in the assay on IGROV-1 is 37.4 µM (inactive); in the assay with SK-MEL-2, 72.9 µM (inactive); in the assay on SK-OV-3, 87.5 µM (inactive); in the assay with MDA-MB-435, 22.7 µM (inactive); with K562, 37.8 µM (inactive); in the assay on HCT-15 it was 41.6 µM. Besides, the GI50 in the assay on MDA-N was 22.2 µM (inactive); in the assay with COLO 205 it was 19.8 µM (inactive); with A498, 36.1 µM (inactive); in the assay with SNB-19, > 100 µM (inactive); with HT-29 it was 35 µM (inactive); in the assay on BT-549, 74.5 µM (inactive). Also, the GI50 with OVCAR-3 was 54.8 µM (inactive); in the assay on RPMI-8226, 48.6 µM (inactive); in the assay with SF-539, 32.7 µM (inactive); with NCI-H522 it was 27.9 µM (inactive); in the assay with SK-MEL-5, 37.4 µM (inactive); in the assay with OVCAR-4, 29.5 µM (inactive).

For the compound `BrC/C=C/C[P+](c1ccccc1)(c1ccccc1)c1ccccc1`, the GI50 in the assay on IGROV-1 is 55.5 µM (inactive); in the assay with SK-MEL-2, 10.8 µM (inactive); with SK-OV-3, 86.5 µM (inactive); in the assay with K562 it was 2.43 µM (inactive); in the assay on COLO 205, 4.53 µM (inactive); in the assay with SNB-19 it was 21.3 µM (inactive). The GI50 with OVCAR-3 was 7.28 µM (inactive); in the assay with RPMI-8226, 0.927 µM (active); with SF-539 it was 1.52 µM (inactive); with M19-MEL it was 10.8 µM (inactive); in the assay on NCI-H522, 12.4 µM (inactive); with SK-MEL-5 it was 11.1 µM (inactive). The GI50 in the assay with OVCAR-4 is 41.1 µM (inactive).

Consider `COc1cc([N+](=O)[O-])ccc1NC(=O)C(F)(F)F`, for which the GI50 in the assay on IGROV-1 is > 100 µM (inactive); with SK-MEL-2 it was > 100 µM (inactive); in the assay on SK-OV-3, > 100 µM (inactive); with MDA-MB-435, > 100 µM (inactive); in the assay on K562, > 100 µM (inactive); in the assay on HCT-15, greater than 100 µM. Besides, the GI50 was > 100 µM (inactive) in the assay on MDA-N; > 100 µM (inactive) in the assay on COLO 205; > 100 µM (inactive) with A498; > 100 µM (inactive) in the assay with SNB-19; 65.3 µM (inactive) in the assay with HT-29; > 100 µM (inactive) in the assay on BT-549. Further, the GI50 with OVCAR-3 is > 100 µM (inactive); with RPMI-8226 it was > 100 µM (inactive); in the assay on SF-539 it was > 100 µM (inactive); in the assay with NCI-H522, 80.7 µM (inactive); in the assay with SK-MEL-5, > 100 µM (inactive); in the assay with OVCAR-4 it was > 100 µM (inactive).

With `O=C1OC(=O)C2C3C=CC(C12)C1C2C=CC2C31` (stereo unspecified), the GI50 with IGROV-1, with SK-MEL-2, with SK-OV-3, with K562, with COLO 205 and in the assay on A498 was > 100 µM (inactive) in each case. Besides, the GI50 in the assay with SNB-19, with HT-29, in the assay on SF-539, with M19-MEL, with NCI-H522 and with OVCAR-4 was > 100 µM (inactive) in each case.
